The values below are quoted from earlier work in US20090304885A1, “Coffee and Tea Baking Compounds and Method of Producing The Same” (priority 2008, published 2009).

Each structure is given as a SMILES string.

The conditions of series [1]: animal models.
The test system of series [2] is Serratia marcescens.
For series [3], the system named is Enterobacter cloacae.
Series [4] concerns methylazoxymethanol-induced large intestinal tumors. The settings on record: hamster.

Turning to `O=C(O)/C=C/c1ccc(O)c(O)c1` [caffeic acid], in series [1], the cancer preventive activities result was “exert cancer preventive activities”.

Regarding `Cn1c(=O)c2c(ncn2C)n(C)c1=O` [caffeine], the antibacterial effect result in series [2] and in series [3] was “particularly strong effect” in each case.

Turning to `O=C(/C=C/c1ccc(O)c(O)c1)O[C@@H]1C[C@](O)(C(=O)O)C[C@@H](O)[C@H]1O` [chlorogenic acid], the antibacterial effect entry in series [2] and in series [3] was “particularly strong effect” throughout. In addition, the inhibition of tumors result in series [4] is recorded as “inhibit”.

Consider `O=C(O)/C=C/c1ccc(O)cc1` [para-coumaric acid], for which, in series [1], the cancer preventive activities entry was “exert cancer preventive activities”.

As to `O=C(O)c1ccc(O)c(O)c1` [protocatechuic acid], the antibacterial effect entry in series [2] and in series [3] was “particularly strong effect” in each case.
